We go through three molecules from patent US11357814B2, “Application of Sarcococca vagans, Chinese medicinal ointment for treating skin disease, preparation method and application thereof” (priority 2017, dated 2022).

In experiment [1] the test system is capillary permeability of mouse abdominal cavities. The experiment can be described thus: Inhibition of capillary permeability of mouse abdominal cavities, Evans blue / glacial acetic acid (Effect Example 7). The note with it: dexamethasone 9.9 ug/kg fed; 580 nm. The experiment is classed as in vivo, Kunming mice. An excerpt: Test for Sarcococca […] effect of inhibiting capillary permeability. Roots of Sarcococca […] dried in the sun, and ground to powder for subsequent use. 1. […] 2. Test reagent: Sarcococca […] powder, dexamethasone acetate tablets (Zhejiang Xianju Pharmaceutical Co., Ltd., batch No. 120347), and glacial acetic acid and xylene were both analytically pure. 3. […] After the Sarcococca […] powder was sieved by 120 meshes, a suitable amount of the Sarcococca […] powder was taken and dissolved in a 0.5% sodium carboxymethylcellulose solution, to prepare high-dosage (0.30 g/ml), medium-dosage (0.15 g/ml), and low-dosage (0.075 g/ml) Sarcococca […] powder suspension. The dexamethasone acetate tablets were ground in the 0.5% sodium carboxymethylcellulose solution, to prepare 19.8 ug/ml suspension. […] For each group, the mice were fed twice each day for the first two days, fed once on the third day, after 30 min, the animals in each group were injected with Evans blue saline at 0.1 ml/10 g through tail vein, then were intraperitoneally injected with 0.9% glacial acetic acid, 40 min after the injection, each animal was killed by cervical dislocation, whose abdominal cavity was washed with saline, and a washing liquid was collected, to be adjusted to a volume of 7 ml, centrifuged at 3000 r/min for 5 min, and measured in absorbance at a 580 nm wavelength.

In experiment [2] the test system is xylene-induced mouse ear edema. The experiment can be described thus: Xylene-induced mouse ear edema (Effect Example 6). The experiment is classed as in vivo, Kunming mice. To be noted: dexamethasone 9.9 ug/kg fed. The text has this: Influences of Sarcococca […] to xylene-induced mouse ear edema. Roots of Sarcococca […] dried in the sun, and ground to powder for subsequent use. 1. […] Test reagent: Sarcococca […] powder, dexamethasone acetate tablets (Zhejiang Xianju Pharmaceutical Co., Ltd., batch No. 120347), and glacial acetic acid and xylene were both analytically pure. 3. […] After the Sarcococca […] powder was sieved by 120 meshes, a suitable amount of the Sarcococca […] powder was taken and dissolved in a 0.5% sodium carboxymethylcellulose solution, to prepare high-dosage (0.30 g/ml), medium-dosage (0.15 g/ml), and low-dosage (0.075 g/ml) Sarcococca […] powder suspension. The dexamethasone acetate tablets were ground in the 0.5% sodium carboxymethylcellulose solution, to prepare 19.8 ug/ml suspension. […] For each group, the mice were fed twice each day for first two days, once on the third day, and after 30 min, 0.05 ml of xylene was applied to both front and back faces of right ear of each mouse in each group, while left ear was not coated with the medicine as control. 40 min after the coating, the mice were killed by cervical dislocation, the left and right ears were cut off, and ear slices at the same parts of the two ears were taken with a puncher and weighed. The difference between weights of the left and right ears is swelling degree. Each group was recorded, and t test was carried out among the groups. […]

Experiment [3] deals with tinea capitis, tinea corporis, tinea cruris or tinea of feet and hands. The experiment can be described thus: Clinical treatment of fungal skin diseases with ointment (Effect Example 3). The experiment is classed as in vivo, human. The text has this: For the purpose of explaining application of the Chinese medicinal ointment provided in the present disclosure for treating fungal skin diseases, for example, treating tinea capitis, tinea corporis, tinea cruris and tinea of feet and hands.
1. Subjects: 150 patients were collected clinically, with 101 males and 49 females, between 16 years old and 65 years old, all of whom suffered from tinea capitis, tinea corporis, tinea cruris or tinea of feet and hands.
2. Test grouping: the patients were randomly grouped into 3 groups, 50 patients in each group. The Chinese medicinal ointment prepared in Examples 1-9 was used for the test group, the Chinese medicinal ointment prepared in the comparative example was used for Control Group 1, and another commercially available ointment for treating tinea corporis, e.g. Ketoconazole, was used for Control Group 2. For each patient, the corresponding ointment was applied on affected parts twice a day, for 2 months continuously.
(§1) 3. Criterion of therapeutic effect:
Cured: Fungi microscopic examination is negative, and tinea and pruritus completely disappear;
Effective: Fungi microscopic examination is negative, tinea substantially disappears, and pruritus is evidently alleviated;
Ineffective: Fungi microscopic examination is positive, and tinea and pruritus are not relieved. Total effective rate=(cured cases+effective cases)/total cases

The subject of the next experiment is allergic dermatitis. Briefly: Clinical treatment of allergic skin diseases with ointment (Effect Example 2). The experiment is classed as in vivo, human.
From the text: For the purpose of explaining application of the Chinese medicinal ointment provided in the present disclosure for treating allergic skin diseases, for example, treating dermatitis and eczema.
1. Subjects: 300 patients were collected clinically, with […] and 131 females, between 19 years old and 68 years old, all of whom suffered from allergic dermatitis.
2. Test grouping: the patients were randomly grouped into 3 groups, 100 patients in each group. The Chinese medicinal ointment prepared in Examples 1-9 was used for the test group, the Chinese medicinal ointment prepared in the comparative example was used for Control Group 1, and another commercially available ointment for treating dermatitis, e.g. Fluocinolone acetonide, was used for Control Group 2. For each patient, the corresponding ointment was applied on affected parts twice a day, for 1 month continuously.
as §1
Cured: clinical symptoms completely disappear;
Total effective rate=(cured cases+effective cases)/total cases

Setting [4] is: cases of 50 patients per group, twice a day for 2 months.

Take `CC(=O)OCC(=O)[C@@]1(O)[C@H](C)C[C@H]2[C@@H]3CCC4=CC(=O)C=C[C@]4(C)[C@@]3(F)[C@@H](O)C[C@@]21C` [Dexamethasone, dexamethasone acetate]: the “Absorbance (A)” value in experiment [1] is given as 0.569 ± 0.238 ^. The “Swelling Degree” value in experiment [2] (40 min after xylene) amounted to 0.0101 ± 0.0034 g. The “Swelling Inhibition Rate” value in experiment [2] (vs normal group) worked out at 20.0%.

With `CC(=O)N1CCN(c2ccc(OCC3COC(Cn4ccnc4)(c4ccc(Cl)cc4Cl)O3)cc2)CC1` (centres unmarked) [Ketoconazole], in experiment [3] ((cured cases+effective cases)/total cases, twice a day for 2 months), the “Total Effective Rate” value is listed as 74%. Further, the Cured in experiment [3] (cases of 50 patients per group, applied twice a day for 2 months, fungi microscopic examination negative, tinea and pruritus completely disappear) is 16. In experiment [3] (setting [4]), the Effective is on record as 21 and the Ineffective turned out to be 13.

For the molecule `CC1(C)O[C@@H]2C[C@H]3[C@@H]4C[C@H](F)C5=CC(=O)C=C[C@]5(C)[C@@]4(F)[C@@H](O)C[C@]3(C)[C@]2(C(=O)CO)O1` [Fluocinolone acetonide], the “Total Effective Rate” value in the experiment with allergic dermatitis ((cured cases+effective cases)/total cases, twice a day for 1 month) is 77%. In the experiment with allergic dermatitis (cases of 100 patients per group, applied twice a day for 1 month, clinical symptoms completely disappear), this molecule registered a Cured of 40. In the experiment on allergic dermatitis (cases of 100 patients per group, twice a day for 1 month), the Ineffective is 23. In addition, the Effective in the experiment with allergic dermatitis (cases of 100 patients per group, twice a day for 1 month, symptoms evidently improved) was found to be 37.
